Laboratory results: patent US12636371B2, “Chemically coupled transporter for low-hydrophobicity bioactive drugs into the central nervous system” (Skybio LLC, priority 2021, dated 2026)
Converted amounts (≈) assume the structure as drawn. Like-named read-outs stand apart in the source and are kept apart here.

Experiments:
E. coli DH5α = assay: Antibiotic activity by disc diffusion assay (MIC); assay type: cell-based; details: for MIC: Escherichia coli; for RATE MIC Compound/Doxycycline: ratio of MIC to doxycycline MIC
Description: In order to examine the antibiotic activity of the compounds synthesized in Example 1, an assay was performed using E. coli DH5α (Gram(−)), as a sensitive, indicator strain.
The antibacterial activities of test compounds were evaluated using the disc diffusion method (Kavanagh, F. Dilution methods of antibiotic assays in Analytical Microbiology. 1963; Pomares M F, Vincent P A, Farías R N, Salomón R A. Protective action of ppGpp in microcin J25-sensitive strains. J Bacteriol. 2008-190:4328-34). Briefly, filter-paper discs impregnated with 10 μl of two-fold serial dilutions of the test compounds, and were placed onto LB solid medium Petri dishes. Then, aliquots (50 μl) of an E. coli DH5α culture in stationary phase were mixed with 3 ml of top agar (0.7% agar) and overlaid onto the plates. After overnight incubation at 37° C., the plates were examined for different degrees of inhibition. Inhibition degrees produced by the test compound are expressed as Minimum Inhibitory Concentrations (MICs), defined as the lowest concentration of a compound that inhibit visible growth of bacteria. Each test was performed in duplicate vs. the reference compound Doxycycline.

D2 dopamine receptor = D2 dopamine receptor (Homo sapiens, UniProt P14416); assay: D2 receptor agonist assay, cAMP Nomad biosensor, U2OS_cAMPNmd_FP650_D2 cells; assay type: cell-based; details: 24 h, 10 serial 1:3 dilutions from 30 μM, triplicate
Chain of D2 dopamine receptor (P14416 whole entry): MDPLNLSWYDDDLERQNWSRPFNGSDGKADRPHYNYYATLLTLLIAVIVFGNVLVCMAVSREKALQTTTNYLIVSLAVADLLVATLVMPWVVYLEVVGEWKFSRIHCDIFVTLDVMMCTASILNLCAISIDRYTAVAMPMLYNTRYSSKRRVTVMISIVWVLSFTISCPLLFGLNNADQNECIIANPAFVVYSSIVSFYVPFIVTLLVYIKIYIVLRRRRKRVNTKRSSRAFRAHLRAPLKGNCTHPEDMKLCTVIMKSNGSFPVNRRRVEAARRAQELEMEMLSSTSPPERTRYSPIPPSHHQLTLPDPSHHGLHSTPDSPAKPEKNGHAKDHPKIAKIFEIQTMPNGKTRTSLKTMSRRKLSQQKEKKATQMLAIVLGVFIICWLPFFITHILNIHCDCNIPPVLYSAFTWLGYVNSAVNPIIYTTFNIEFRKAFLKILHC
Description: HEK_cAMPNmd_FP650_D1 and U2OS_cAMPNmd_FP650_D2 cells were seeded at a density of 30.000 and 20.000 cells/well, respectively, in 96-well plates. Cells were maintained in DMEM or DMEM-F12 medium supplemented with 10% FBS during 24 h at 37° C. in a humidified 5% CO2 atmosphere.
Cells were then incubated for 24 h.
To detect Nomad biosensor activation, the assay medium was removed and replaced by […] of DPBS with calcium and magnesium. […] In U2OS_cAMPNmd_FP650_D2 cells, images were acquired using the CellInsight CX7 HCS Platform, and the number of fluorescent vesicles per cell was quantified with the HCS Studio Cell Analysis Software.
The effect of the compounds in the regulation of D1 or D2 receptors' activation was analyzed measuring the CAMP signaling using the Nomad biosensor-based assay.
This same experiment was carried out in the U2OS_cAMPNmd_FP650_D2 cell line (FIG. 10). The effect of the compounds was analyzed quantifying the number of fluorescent vesicles in the cytoplasm of the cells using the HCS Studio Cell Analysis Software.

D1 dopamine receptor = D1 dopamine receptor (Homo sapiens, UniProt P21728); assay: D1 receptor agonist assay, cAMP Nomad biosensor, HEK_cAMPNmd_FP650_D1 cells; details: 24 h, 10 serial 1:3 dilutions from 30 μM, triplicate
Chain of D1 dopamine receptor (P21728 whole entry): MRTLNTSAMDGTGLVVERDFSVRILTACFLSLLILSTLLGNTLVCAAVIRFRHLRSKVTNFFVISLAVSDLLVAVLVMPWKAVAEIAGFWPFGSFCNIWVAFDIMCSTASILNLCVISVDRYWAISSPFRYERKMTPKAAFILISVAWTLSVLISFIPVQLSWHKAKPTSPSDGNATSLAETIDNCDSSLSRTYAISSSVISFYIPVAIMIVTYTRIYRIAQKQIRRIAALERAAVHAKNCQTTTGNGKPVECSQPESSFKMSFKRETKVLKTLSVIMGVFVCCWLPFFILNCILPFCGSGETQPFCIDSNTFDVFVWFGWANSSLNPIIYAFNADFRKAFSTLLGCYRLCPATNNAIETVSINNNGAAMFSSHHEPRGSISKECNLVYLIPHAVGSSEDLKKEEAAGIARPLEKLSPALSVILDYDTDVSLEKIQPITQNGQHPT
Description: To detect Nomad biosensor activation, the assay medium was removed and replaced by 100 ml of DPBS with calcium and magnesium. […] In U2OS_cAMPNmd_FP650_D2 cells, images were acquired using the CellInsight CX7 HCS Platform, and the number of fluorescent vesicles per cell was quantified with the HCS Studio Cell Analysis Software.

SH-SY5Y cells = assay: CellROX assay of intracellular reactive oxygen species induced by ASf; assay type: cell-based; details: 10 μM compound alone, 24 h
Description: In order to characterize the antioxidant properties of D9, its protective action on the AS-induced production of reactive oxygen species (ROS) in a cellular model was assessed. For this, SH-SY5Y cells were treated with fibrils of AS (ASf) (AS incubated 120 h at 37° C. and 600 rpm), and the reactive oxygen species produced were examined using the CellROX® Orange Reagent (Invitrogen), which undergoes oxidation by ROS to form a stable fluorescent compound.
In addition, cells were also treated with doxycycline 10 μM+7 μM ASf (ASf+Doxy) as a positive control, and 10 μM doxycycline alone (Doxy). All conditions were incubated 24 h at 37° C. and 5% CO2. […] Fluorescent images of randomly chosen fields were acquired with identical acquisition parameters using a Zeiss Axio Vert.A1 inverted fluorescence microscope.

[1] = disc diffusion, two-fold serial dilutions from 2 mg/ml, LB solid medium, overnight 37° C., read-out: MIC

Compound | MIC (E. coli DH5α; [1]) | RATE MIC Compound/Doxycycline (E. coli DH5α) | MIC (E. coli DH5α) | EC50, D2 receptor activation (D2 dopamine receptor) | EC50, D1 receptor activation (D1 dopamine receptor) | Intracellular ROS induced by compound alone (SH-SY5Y cells)
C[C@H]1c2cccc(O)c2C(=O)C2=C(O)[C@]3(O)C(=O)C(C(N)=O)=C(O)C(N(C)C)C3[C@@H](O)C21 (some centres unmarked) [Compound D1, Doxycycline Free Form, reference compound] | 31.2 µg/mL (≈ 70.3 µM) | 1 | – | – | – | –
C[C@H]1c2cccc(O)c2C(=O)C2=C(O)[C@]3(O)C(=O)C(C(N)=O)=C(O)CC3[C@@H](O)C21 (some centres unmarked) [Compound D3, 4-dedimethylaminodoxycycline] | – | 16 | 500 µg/mL (≈ 1250 µM) | – | – | –
C[C@H]1c2ccc([N+](=O)[O-])c(O)c2C(=O)C2=C(O)[C@]3(O)C(=O)C(C(N)=O)=C(O)CC3[C@@H](O)C21 (some centres unmarked) [Compound D4, 4-dedimethylamino-9-nitro doxycycline] | 1000 µg/mL (≈ 2240 µM) | 32 | – | – | – | –
C[C@H]1c2ccc(N)c(O)c2C(=O)C2=C(O)[C@]3(O)C(=O)C(C(N)=O)=C(O)CC3[C@@H](O)C21 (some centres unmarked) [Compound D5, 9-amino-4-dedimethylamino doxycycline] | 250 µg/mL (≈ 600 µM) | 8 | – | did not act as an agonist of the D2 receptor | did not act as an agonist of the D1 receptor | –
C[C@H]1c2ccc(NC(=O)CCl)c(O)c2C(=O)C2=C(O)[C@]3(O)C(=O)C(C(N)=O)=C(O)CC3[C@@H](O)C21 (some centres unmarked) [Compound D6, 9-(2-chloroacetamido)-4-dedimethylamino doxycycline] | – | 64 | 2000 µg/mL (≈ 4060 µM) | – | – | –
C[C@H]1c2cccc(O)c2C(=O)C2=C(O)[C@]3(O)C(=O)C(C(N)=O)=C(O)[C@@H](N(C)C)[C@@H]3[C@@H](O)[C@@H]21 [Doxycycline, reference compound] | 31.2 µg/mL (≈ 70.3 µM) | – | – | – | – | neither the presence of D9 nor doxycycline induced intracellular ROS
